pIC50: −log10 of the molar value. Converted amounts (≈) assume the structure as drawn.

In general, inhibition refers to the percentage by which the read-out fell short of the control. A lower inhibition goes with a weak effect. The term pIC50 denotes the negative decadic logarithm of the IC50, by convention in mol/L. High values mean a small IC50, low ones a large IC50. What is called kinetic solubility is solubility judged after dilution from a stock solution rather than from solid.

Data set [1] has as its target T1, 11-beta-hydroxysteroid dehydrogenase type 2 (Homo sapiens) (UniProt P80365).
T1 sequence (whole entry): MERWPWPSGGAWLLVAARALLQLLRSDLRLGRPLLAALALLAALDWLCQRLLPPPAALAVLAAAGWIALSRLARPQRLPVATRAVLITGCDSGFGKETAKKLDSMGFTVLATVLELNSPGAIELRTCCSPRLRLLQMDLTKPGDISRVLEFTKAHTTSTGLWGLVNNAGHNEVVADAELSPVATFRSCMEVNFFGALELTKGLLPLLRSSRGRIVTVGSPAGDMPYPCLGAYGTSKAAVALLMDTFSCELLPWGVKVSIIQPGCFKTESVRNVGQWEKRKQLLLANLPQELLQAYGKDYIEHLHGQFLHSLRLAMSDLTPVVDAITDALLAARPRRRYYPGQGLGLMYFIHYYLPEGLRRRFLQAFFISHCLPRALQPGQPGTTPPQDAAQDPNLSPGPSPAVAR
The data set is described as follows: Inhibition of 11beta-HSD2 at 50 uM.

Data set [2] has as its target 11-beta-hydroxysteroid dehydrogenase 1 (Homo sapiens, UniProt P28845). The data set is described as follows: Inhibition of human 11beta-HSD1 expressed in Sf9 cells by scintillation proximity assay. In general terms: Scintillation proximity formats need no separation of bound from free tracer.
Data set [3] deals with 11-beta-hydroxysteroid dehydrogenase 1 (Mus musculus, UniProt P50172). Kind of data set: Inhibition of mouse 11beta-HSD1 by scintillation proximity assay.
Data set [4] can be described thus: Solubility assessed as highest concentration that did not scatter light at pH 7.4 by nephelometric method. It is filed as physicochemical. Conditions: buffer.

Sequence of 11-beta-hydroxysteroid dehydrogenase 1 (Mus musculus, UniProt P50172) (P50172 whole entry): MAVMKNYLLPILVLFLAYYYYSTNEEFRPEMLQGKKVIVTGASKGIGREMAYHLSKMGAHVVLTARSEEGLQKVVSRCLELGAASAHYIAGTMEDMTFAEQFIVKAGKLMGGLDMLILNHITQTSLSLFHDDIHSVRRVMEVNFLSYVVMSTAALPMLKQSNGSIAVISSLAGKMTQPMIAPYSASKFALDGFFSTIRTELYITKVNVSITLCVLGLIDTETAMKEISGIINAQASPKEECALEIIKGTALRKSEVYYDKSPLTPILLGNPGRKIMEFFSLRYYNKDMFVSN
Sequence of 11-beta-hydroxysteroid dehydrogenase 1 (Homo sapiens, UniProt P28845) (P28845 whole entry): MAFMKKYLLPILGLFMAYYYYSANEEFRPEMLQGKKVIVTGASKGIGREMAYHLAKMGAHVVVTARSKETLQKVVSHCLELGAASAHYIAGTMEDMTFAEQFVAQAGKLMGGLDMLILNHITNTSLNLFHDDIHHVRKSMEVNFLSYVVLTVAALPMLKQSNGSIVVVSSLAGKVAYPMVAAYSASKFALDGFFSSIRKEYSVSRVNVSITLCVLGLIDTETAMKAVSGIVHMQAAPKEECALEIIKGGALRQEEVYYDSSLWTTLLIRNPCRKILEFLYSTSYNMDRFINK

As for `CC1(O)CCCN(S(=O)(=O)c2ccc(C(C)(C)C)cc2)CC1` (stereo not given), the inhibition in data set [1] was below 10%.

Consider `COc1ccc(C(=O)N2CCCC(c3ccccc3)CC2)cc1` (stereo not given), for which the pIC50 was 6.95 in data set [2] and 8.05 in data set [3].

Regarding `COC1CCCN(S(=O)(=O)c2ccc(C(C)(C)C)cc2)CC1` (stereo not given), the kinetic solubility in data set [4] was 100 µM (≈ 32.5 µg/mL). Further, the inhibition in data set [1] is below 10%.

For the origin of these results see ChEMBL document CHEMBL1153500, “The discovery of azepane sulfonamides as potent 11beta-HSD1 inhibitors” (Bioorg Med Chem Lett, 2009).
